The series can be described thus: Controlled release study: release of chlorhexidine acetate (ChAc) from drug-loaded ePTFE vascular cuff graft sections into PBS, UV absorbance. The class given is physicochemical. Particulars: from ePTFE cuff section in PBS. As for the experimental part: With respect to a vascular cuff graft, examples of which are shown in FIGS. 2 and 3, experimentation was conducted to study the release of a drug without a polymeric carrier from the cuff surface. The drug chosen for the experiment was chlorhexidine acetate (ChAc) and the release time was scheduled for nine weeks. The materials and methods of the experiment included creating a calibration curve, preparing the vascular cuff grafts, and measuring absorbance, each of which is described in detail below.
Initially, a calibration curve was created to determine the concentration of ChAc in phosphate buffered saline (PBS). […] The absorbance of each of these solutions was determined using the Shimadzu UV-1601 spectrophotometer. A curve of absorbance versus concentration was expected to be linear. […]
To prepare the vascular cuff grafts, the drug was embedded therein using the following procedure. […] The cuff section weights with the loaded drug were then determined and recorded. The cuff section weights without the loaded drug were determined after the study by washing the cuffs with ethanol and drying. […]
Absorbance was measured to determine the amount of drug released from the cuff sections. […] The PBS solutions were then analyzed using the Shimadzu UV 1600 spectrophotometer. […] The absorbance at ˜286 nm was recorded by automatic peak detection by the spectrophotometer. […]

Regarding `CC(=O)O.CC(=O)O.NC(=N\CCCCCC/N=C(N)/N=C(\N)Nc1ccc(Cl)cc1)/N=C(\N)Nc1ccc(Cl)cc1` [ChAc, chlorhexidine acetate], the “levels of the drug in release medium” value (after nine weeks) was “still detectable”. For the same compound, the drug released result (after one day) is recorded as “approximately 50%”.

For the origin of these results see patent US20100268321A1, “DRUG-RELEASING GRAFT” (C R BARD, INC., priority 2005, published 2010).
